The text below walks through data of patent US20140171516A1, “GERANYLGERANYLACETONE FORMULATIONS” (COYOTE PHARMACEUTICALS, INC., priority 2012, published 2014).

Data set [1] in a line: Rat ocular pharmacokinetics study, Cohort 1: geranylgeranyl acetone concentration in eyes after topical eye drops. The format is in vivo. To be noted: Sprague-Dawley, 0.25 mg/eye, 8 doses, average of 3 rats.
Data set [2] can be described thus: Intraocular GGA level, topical ocular versus oral systemic administration. It counts as in vivo. To be noted: topical ocular composition of 5% GGA versus 200 mg/kg GGA by systemic administration orally.

Like-named read-outs stand apart in the source and are kept apart here.

For `CC(=O)CC/C=C(\C)CC/C=C(\C)CC/C=C(\C)CCC=C(C)C` [CNS-102, all-trans geranylgeranyl acetone], the concentration at 8 h worked out at 2100 ng/g in data set [1] (contralateral eye, contralateral eye concentration (ng/g in Table 7), read-out: 8 h contra AVE) and 8770 ng/g in data set [1] (treated (ipsilateral) eye, treated eye concentration (ng/g in Table 7), read-out: 8 h ispi AVE).

Regarding `CC(=O)CCC=C(C)CC/C=C(\C)CC/C=C(\C)CCC=C(C)C` (mixture of isomers) [GGA, Geranylgeranyl acetone], the “levels of geranylgeranyl acetone achieved intraocularly, topical versus oral” value in data set [2] is recorded as “about 5 fold”.
